Assays:
[1] = system: Erysiphe graminis f. sp. tritici; test: Test of preventive effect on wheat powdery mildew; assay type: in vivo; settings: wheat (Shirogane), foliage application 500 ppm, 7 days after inoculation
Protocol: (§1) The controlling effect was evaluated by visually observing the area or lesion spots on each of test plants at the time of investigation and comparing the area of lesion spots on a plant treated with the present compound with that on an untreated plant.
Test of Preventive Effect on Wheat Powdery Mildew (Erysiphe graminis f. sp. tritici)
Each of plastic pots was filled with sandy loam and sown with wheat (cultivar: Shirogane), followed by growing in a greenhouse for 10 days. The present compound 8 was formulated into a flowable formulation according to Formulation Example 6. The flowable formulation was diluted to a predetermined concentration (500 ppm) with water, and foliage application of the dilution was carried out so that the dilution adhered sufficiently to the surfaces of leaves of the grown wheat young seedling. After the foliage application, the plant was air-dried and then inoculated by sprinkling with spores of Erysiphe graminis f. sp. tritici. After the inoculation, the plant was held in a greenhouse at 23° C. for 7 days and the area of lesion spots was investigated.

[2] = system: Puccinia recondita f. sp. tritici; test: Test of curative effect on wheat leaf rust; assay type: in vivo; settings: wheat (Shirogane), foliage application 500 ppm, curative (1 day after inoculation), 6 days after application
Protocol: as §1
Test of Curative Effect on Wheat Leaf Rust (Puccinia recondita f. sp. tritici)
Each of plastic pots was filled with sandy loam and sown with wheat (cultivar: Shirogane), followed by growing in a greenhouse for 9 days. The plant was inoculated by sprinkling with spores of Puccinia recondita f. sp. tritici. After the inoculation, the plant was held under darkness and high humidity conditions at 23° C. for 1 day and then air-dried to give a seedling infected with Puccinia recondita f. sp. tritici. The present compound 10 was formulated into a flowable formulation according to Formulation Example 6. The flowable formulation was diluted to a predetermined concentration (500 ppm) with water, and foliage application of the dilution was carried out so that the dilution adhered sufficiently to the surfaces of leaves of the above plant. After the foliage application, the plant was air-dried and held under lighting conditions for 6 days, and then the area of lesions was investigated.

C#CCOc1cc(F)c(C(=O)NCC2CCCCC2)cc1F [compound 8]
area of lesion spots on the treated plant relative to that on an untreated plant [1]: ≤ 30%

C#CCOc1cc(F)c(C(=O)NC(C)C(C)C)cc1F (centres unmarked) [compound 10]
area of lesion spots on the treated plant relative to that on an untreated plant [2]: ≤ 30%
